# Values quoted from earlier work in patent US20210315250A1, “COMBINATION BROAD-SPECTRUM ANTIVIRAL NATURAL EXTRACT SUPPLEMENTS” (priority 2020, published 2021).
# What was measured:
# viral S protein = viral S protein (Severe acute respiratory syndrome coronavirus 2, UniProt P0DTC2)
# ACE2 receptor = ACE2 receptor (Homo sapiens, UniProt Q9BYF1)
# SARS-CoV 3CL = SARS-CoV 3CL (Severe acute respiratory syndrome coronavirus, UniProt P0C6X7)
# [1] = test system: docking site for SARS-CoV-2
# ACE2 receptor, sequence (Q9BYF1 18-805): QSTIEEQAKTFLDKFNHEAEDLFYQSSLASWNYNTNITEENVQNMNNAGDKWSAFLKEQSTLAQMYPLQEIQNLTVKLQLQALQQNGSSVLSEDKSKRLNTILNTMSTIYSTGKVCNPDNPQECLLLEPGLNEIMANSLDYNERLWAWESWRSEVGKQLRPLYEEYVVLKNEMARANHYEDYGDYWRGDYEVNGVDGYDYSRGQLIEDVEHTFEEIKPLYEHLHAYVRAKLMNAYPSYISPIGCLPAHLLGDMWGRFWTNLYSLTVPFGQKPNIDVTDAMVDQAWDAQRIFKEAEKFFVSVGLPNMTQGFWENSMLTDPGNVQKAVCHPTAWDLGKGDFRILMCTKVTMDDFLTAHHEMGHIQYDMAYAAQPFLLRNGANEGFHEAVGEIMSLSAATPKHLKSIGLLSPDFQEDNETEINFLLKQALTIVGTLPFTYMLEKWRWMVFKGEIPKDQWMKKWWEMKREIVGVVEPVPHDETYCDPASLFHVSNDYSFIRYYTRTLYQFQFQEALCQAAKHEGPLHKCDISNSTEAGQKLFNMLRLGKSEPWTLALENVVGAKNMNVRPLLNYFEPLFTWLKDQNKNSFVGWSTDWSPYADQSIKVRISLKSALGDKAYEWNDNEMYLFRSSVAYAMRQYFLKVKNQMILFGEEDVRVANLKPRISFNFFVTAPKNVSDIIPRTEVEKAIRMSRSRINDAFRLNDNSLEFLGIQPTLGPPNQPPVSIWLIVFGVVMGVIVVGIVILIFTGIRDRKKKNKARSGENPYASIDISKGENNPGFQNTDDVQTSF
molecule,measurement,setting,value
COc1cc(/C=C/C(=O)CC(=O)/C=C/c2ccc(O)c(OC)c2)ccc1O [Curcumin],interaction with viral S protein docking site,viral S protein,interact
same,interaction with ACE2 receptor docking site,ACE2 receptor,interact
O=c1cc(-c2ccc(O)c(O)c2)oc2cc(O)cc(O)c12 [Luteolin],inhibition of the docking site for SARS-CoV 3CL,SARS-CoV 3CL,inhibit
CC(=O)C=O [Methylglyoxal],"inhibition of viruses, in particular influenza",influenza,inhibit
O=c1c(O)c(-c2cc(O)c(O)c(O)c2)oc2cc(O)cc(O)c12 [Myricetin],inhibition of the docking site for SARS-CoV-2,[1],inhibit
O=C1OC[C@H](Cc2ccc3c(c2)OCO3)/C1=C\c1ccc2c(c1)OCO2 [Savinin],inhibition of the docking site for SARS-CoV 3CL,SARS-CoV 3CL,inhibit
C/C=C/c1ccc(OC)cc1 [Trans-anethole],inhibition of HSV-1,HSV-1,inhibit
O=c1c(O)c(-c2ccc(O)cc2)oc2c(O)c(O)cc(O)c12 [herbacetin],binding to SARS-CoV 3CL,SARS-CoV 3CL,bind
CCCCCCCCCCCCCC(=O)O [myristic acid],inhibition of SVS,SVS,inhibit
same,inhibition of HIV,HIV,inhibit
COc1ccc(-c2cc(=O)c3c(O)c(OC)c(O[C@@H]4O[C@H](CO[C@@H]5O[C@@H](C)[C@H](O)[C@@H](O)[C@H]5O)[C@@H](O)[C@H](O)[C@H]4O)cc3o2)cc1 [pectolinarin],binding to SARS-CoV 3CL,SARS-CoV 3CL,bind
C[C@@H]1O[C@@H](O[C@H]2[C@H](Oc3cc(O)c4c(=O)cc(-c5ccc(O)cc5)oc4c3)O[C@H](CO)[C@@H](O)[C@@H]2O)[C@H](O)[C@H](O)[C@H]1O [rhoifolin],binding to SARS-CoV 3CL,SARS-CoV 3CL,bind
caryophyllene,inhibition of HSV-1,HSV-1,inhibit
